Results: article PMC9293909 (Nature Communications, 2022)
“And” between values parts separate entries of the source, which are not always exact repeats. Equal entries are not always repeated. Where two headings read alike, the source gives them in different places.

Tests used:
[1] = test system: respiration (f, VT, VE); assay: Urethane-anaesthetised rat, respiration; conditions: Fig6e
Experimental: The femoral vein was catheterised for drug delivery.
Adult male Sprague–Dawley rats (400-500 g) were anaesthetised with urethane and instrumented as described above, with the exception that the arterial cannulation was not performed.
Changes in f, VT, and VE were measured. If the dosing occurred close to a respiratory event such as a sigh a second IV dose was administered, with 20 min recovery periods either side of the injection.

[2] = test system: heart rate and mean arterial blood pressure; assay: Urethane-anaesthetised rat, heart rate and arterial blood pressure; conditions: for HR / HR, Average / MAP, Average: Fig6e
Description: Anaesthesia was induced in adult male Sprague–Dawley rats (230-330 g) with isofluorane (2–4%; Piramal Healthcare). The femoral vein was catheterised for drug delivery. Anaesthesia was maintained with urethane (1.2–1.7 g kg^−1; Sigma) in sterile saline delivered via the femoral vein catheter. […] The trachea was cannulated and the femoral artery catheterised, and both were connected to pressure transducers (Digitimer) to record respiratory airflow and arterial blood pressure, respectively. Blood pressure and airflow signals were amplified using the NeuroLog system (Digitimer) connected to a micro1401 interface and acquired on a computer using Spike2 software (v7.08a; Cambridge Electronic Design). […] Airflow measurements were used to calculate: tidal volume (VT; mL; pressure sensors were calibrated with a 3 mL syringe), and respiratory frequency (f; breaths min^−1; BrPM). Minute ventilation (VE; mL min^−1) was calculated as f × VT.
Cardiovascular and respiratory parameters were allowed to stabilise before experiments began. A1R agonists were administered by intravenous (IV) injection and the changes in HR, MAP, f, VT, and VE were measured. […] All injections were administered IV as a 350 µl·kg^-1 bolus.

[3] = test system: neuropathic pain (paw withdrawal threshold); assay: Spinal nerve ligation (Chung model), mechanical allodynia, von Frey; type: in vivo, rat
Experimental: Adult male Sprague–Dawley rats, 7-8 weeks old, weighing around 250 g at the time of Chung model surgery, were purchased from Charles River UK Ltd. The animals were housed in groups of 4 in an air-conditioned room on a 12-hour light/dark cycle. Food and water were available ad libitum. They were allowed to acclimatise to the experimental environment for three days by leaving them on a raised metal mesh for at least 40 min. The baseline paw withdrawal threshold (PWT) was examined using a series of graduated von Frey hairs (see below) for 3 consecutive days before surgery and re-assessed on the 6th to 8th day after surgery and on the 13th to 17th day after surgery before drug dosing.
Prior to surgery each rat was anaesthetised with 3% isoflurane mixed with oxygen (2 L min^−1) followed by an intramuscular injection of ketamine (60 mg kg^−1) plus xylazine (10 mg kg^−1). The back was shaved and sterilised with povidone-iodine. The animal was placed in a prone position and a para-medial incision was made on the skin covering the L4-6 level. The L5 spinal nerve was carefully isolated and tightly ligated with 6/0 silk suture. The wound was then closed in layers after a complete haemostasis. A single-dose of antibiotics (Amoxipen, 15 mg/rat, intraperitoneally, IP) was routinely given for prevention of infection after surgery. The animals were placed in a temperature-controlled recovery chamber until fully awake before being returned to their home cages. The vehicle (normal saline or DMSO) was administered via the IV route at 1 ml·kg^−1 and via the intrathecal (IT) route at 10 µl for each injection. […] To test for mechanical allodynia the animals were placed in individual Perspex boxes on a raised metal mesh for at least 40 min before the test. Starting from the filament of lower force, each filament was applied perpendicularly to the centre of the ventral surface of the paw until slightly bent for 6 seconds. If the animal withdrew or lifted the paw upon stimulation, then a hair with force immediately lower than that tested was used. If no response was observed, then a hair with force immediately higher was tested. […] The animals were returned to their home cages to rest (about 30 min) between two neighbouring testing time points. At the end of each experiment, the animals were deeply anaesthetised with isoflurane and killed by decapitation.

[4] = Half-life determination in PBS; type: physicochemical; conditions: for 1st / % Compound Remaining / 2nd / % Compound Remaining / Mean / % Compound Remaining: PBS, pH 7.4; for half-life: buffer, pH 7.4, PBS
Experimental: […] Samples were analysed by HPLC-MS/MS and corresponding peak areas were recorded for each analyte. The ratio of precursor compound remaining after each time-point relative to the amount present at time 0, expressed as a percentage, is reported as chemical stability.

[5] = incubation 0 minutes, UoBern01 at 1.00E-06 M
[6] = incubation 60 minutes, UoBern01 at 1.00E-06 M
[7] = incubation 120 minutes, UoBern01 at 1.00E-06 M
[8] = antagonist group, 1h after dosing
[9] = antagonist group, 2h after dosing
[10] = antagonist group, 4h after dosing

OC[C@H]1O[C@@H](n2cnc3c(N[C@@H]4CCC[C@H]4OCc4ccccc4)ncnc32)[C@H](O)[C@@H]1O [B]
Freq, Average ([1]; dose group B 8, n 12): 166.9
Freq, Average ([1]; dose group B 17, n 4): 189.3
Freq, Average ([1]; dose group B 25, n 4): 209.0
HR ([2]; dose group B 8, individual rat): 406 and 368 and 425 and 416 and 331 and 340 and 420 and 470
HR, Average ([2]; dose group B 8, n 8): 397.0
MAP, Average ([2]; dose group B 8, n 8): 111.3
HR ([2]; dose group B 17, individual rat): 369 and 385 and 301 and 313
HR, Average ([2]; dose group B 17, n 4): 342.0
MAP, Average ([2]; dose group B 17, n 4): 115.8
HR ([2]; dose group B 25, individual rat): 362 and 382 and 312 and 305
HR, Average ([2]; dose group B 25, n 4): 340.3
MAP, Average ([2]; dose group B 25, n 4): 113.5

OC[C@H]1O[C@@H](n2cnc3c(NC4CCCC4OCc4ccccc4)ncnc32)[C@H](O)[C@@H]1O (stereo partly drawn) [BnOCPAA]
paw withdrawal threshold, individual animals (Fig7d) ([3]; 6ug, 1h after dosing): 8
paw withdrawal threshold, Average (Fig7d) ([3]; 6ug, 1h after dosing, n 11): 9.8
paw withdrawal threshold, individual animals (Fig7d) ([3]; 6ug, 2h after dosing): 8
paw withdrawal threshold, Average (Fig7d) ([3]; 6ug, 2h after dosing, n 11): 12.6
paw withdrawal threshold, individual animals (Fig7d) ([3]; 6ug, 4h after dosing): 8
paw withdrawal threshold, Average (Fig7d) ([3]; 6ug, 4h after dosing, n 11): 9.8

O=C(O)CCCc1ccc(N(CCCl)CCCl)cc1 [Chlorambucil]
1st / % Compound Remaining [4, 5]: 100%
2nd / % Compound Remaining [4, 5]: 100%
Mean / % Compound Remaining [4, 5]: 100%
1st / % Compound Remaining ([4]; incubation 30 minutes): 68.5%
2nd / % Compound Remaining ([4]; incubation 30 minutes): 81.3%
Mean / % Compound Remaining ([4]; incubation 30 minutes): 74.9%
1st / % Compound Remaining [4, 6]: 45.8%
2nd / % Compound Remaining [4, 6]: 52.3%
Mean / % Compound Remaining [4, 6]: 49.1%
1st / % Compound Remaining ([4]; incubation 90 minutes): 27.3%
2nd / % Compound Remaining ([4]; incubation 90 minutes): 31%
Mean / % Compound Remaining ([4]; incubation 90 minutes): 29.2%
1st / % Compound Remaining [4, 7]: 11%
2nd / % Compound Remaining [4, 7]: {17.7} %
Mean / % Compound Remaining [4, 7]: 11%
half-life ([4]; UoBern01 at 1.00E-06 M, read-out: 1st / Half-Life): 39 min
half-life ([4]; UoBern01 at 1.00E-06 M, read-out: 2nd / Half-Life): 52.6 min
half-life ([4]; UoBern01 at 1.00E-06 M, read-out: Mean / Half-Life): 46 min

CCCn1c(=O)c2[nH]c(C3CCCC3)nc2n(CCC)c1=O [DPCPX]
effect on reversal of mechanical allodynia by BnOCPA ([3]; DPCPX 1 mg kg^−1 IP, BnOCPA 6 µg kg^−1 IV): prevented the reversal of mechanical allodynia by BnOCPA
paw withdrawal threshold, Average (Fig7d) [3, 8]: 4.0
paw withdrawal threshold, individual animals (Fig7d) [3, 8]: 6 and 4 and 2
paw withdrawal threshold, Average (Fig7d) [3, 9]: 4.0
paw withdrawal threshold, individual animals (Fig7d) [3, 9]: 6 and 4 and 2
paw withdrawal threshold, Average (Fig7d) [3, 10]: 4.7
paw withdrawal threshold, individual animals (Fig7d) [3, 10]: 6 and 4 and 2

CCCOC(=O)c1c(-c2ccccc2)nc(CC)c(C(=O)SCC)c1CCC [MRS1523]
effect on analgesia caused by BnOCPA ([3]; MRS1523 2 mg kg^−1 IP, BnOCPA 6 µg kg^−1 IV): had no effect on the analgesia caused by BnOCPA
paw withdrawal threshold, Average (Fig7d) [3, 8]: 13.6
paw withdrawal threshold, individual animals (Fig7d) [3, 8]: 15 and 8
paw withdrawal threshold, Average (Fig7d) [3, 9]: 14.0
paw withdrawal threshold, individual animals (Fig7d) [3, 9]: 15 and 10
paw withdrawal threshold, Average (Fig7d) [3, 10]: 12.2
paw withdrawal threshold, individual animals (Fig7d) [3, 10]: 15 and 10 and 6

Nc1ncnc2c1ncn2[C@@H]1O[C@H](CO)[C@@H](O)[C@H]1O [ado]
heart rate ([2]; Fig5c, individual rat): 179 and 147 and 138 and 122
heart rate, Average ([2]; Fig5c, n 4): 147
mean arterial blood pressure ([2]; Fig5d, individual rat): 56 and 36 and 42 and 48
mean arterial blood pressure, Average ([2]; Fig5d, n 4): 46
